Results as given in patent US20240376119A1, “SPIRO COMPOUND AND USE THEREOF” (CSPC Zhongqi Pharmaceutical Technology (Shijiazhuang) Co., …, priority 2021, published 2024).

Tests used:
hERG channel = hERG channel (Homo sapiens (Human), UniProt Q12809); test: hERG assay, manual whole-cell patch clamp in CHO-K1 cell line stably expressing the hERG channel; format: cell-based
Protocol: This assay included the following aspects: • A manual patch clamp technique was used to record the hERG current in the CHO-K1 cell line stably expressing the hERG channel; • The inhibition rate at each concentration was calculated based on the hERG tail current; • Each compound was tested at 5 concentrations to calculate the IC50 value; • Three cells were tested for each concentration; • One positive control drug was set.
HERG currents were recorded using the whole-cell patch-clamp technique. The cell suspension was added to the cell tank and placed on the upright microscope stage. After the cell adherence, the cells were perfused with extracellular fluid at a flow rate of 1-2 mL/min. The glass microelectrode was drawn in two steps by a micropipette puller, and its resistance value in water was 2-5 MΩ. After establishing the whole-cell recording, the clamp potential was maintained at −80 mV. The hERG tail current was elicited by applying a depolarizing voltage to +60 mV upon the voltage stimulation and then repolarizing to −50 mV. All recordings were made after the current stabilization. Extracellular perfusion administration started from a low concentration, and each concentration lasted for 5-10 minutes until the current was stable, and then proceeded to the next concentration.
The half inhibitory concentration (ICSO) of the test compound was derived from the best fit of the Logistic equation.

[1] = Mouse pharmacokinetic assay (intragastric administration, plasma HPLC-MS/MS); format: in vivo; settings: ICR mice
Protocol: ICR mice were intragastrically administered with the compound at 10 mg/kg or 20 mg/kg. At different time points (0.25 h, 0.5 h, 1 h, 2 h, 4 h, 8 h, 24 h) after administration, the mice blood was collected from the orbit. The collected whole blood was anticoagulated with heparin sodium and centrifuged at 3000 g to obtain mouse plasma samples. Methanol was added to precipitate proteins. The drug concentration in the mouse plasma after administration was determined by the HPLC-MS/MS method. A drug concentration-time curve was plotted and the pharmacokinetic parameters were calculated. The pharmacokinetic behavior in mice after the compound administration was described by means of non-compartment model statistical moment parameters.

[2] = system: human lung adenocarcinoma NCI-H441 cells; test: In vitro inhibitory effect on the proliferation of NCI-H441 cells (3D CellTiter Glo, 5 days); format: cell-based; settings: 120 h, 3D cell viability
Protocol: The human lung adenocarcinoma cell NCI-H441 used in the assay was purchased from ATCC. The complete culture medium required for cell culture was RPMI 1640 Medium (GIBCO Company), which was supplemented with 10% fetal bovine serum (GIBCO Company). Cells were cultured in a 37° C., 5% CO2 incubator. The reagents used in the assay included dimethyl sulfoxide (purchased from Sigma), a 3D Cell Viability assay kit (purchased from Promega), and the control substance TW-45 used in the assay was obtained homemade. The test substance was sealed and stored at 4° C.
Dimethyl sulfoxide was used as the solvent to fully dissolve the test substance and prepare a stock solution with a concentration of 1×10^−2 mol/L. The stock solution was stored at −20° C. A complete culture medium was used as the diluent, and the test substance was diluted to different concentrations in gradient for later use (the final test concentration was 10000, 3333, 1111, 370, 123, 41, 13.7, 4.5, 1.5, and 0.5 nM). Cells were cultured in a 37° C., 5% CO2 incubator for 5 days. Detection was made on the fifth day. 30 μL of reagent (Celltiter Glo Assay Kit-3D) was added to each well and the plate was shaken on a plate oscillator (protected from light) for 30 minutes. The plate was incubated at room temperature (protected from light) for 120 minutes. Chemiluminescence values were recorded with a Multiplate reader. […]

SHP2 = SHP2 (Homo sapiens (Human), UniProt Q06124); test: Assay for the inhibitory effect on the SHP2 enzyme (DiFMUP substrate, fluorescence); format: biochemical; settings: SHP2 activated with SHP-2 activated peptide; DiFMUP 10 μM; read-out: Enzymatic Effect (IC50 on SHP2)
Protocol: 1× Assay buffer was prepared. A compound to be tested was diluted with DMSO solvent to a stock concentration of 10 mM. The compound to be tested was first diluted to an intermediate concentration of 1000 μM and then further diluted in a 3-fold gradient using DMSO. Therefore, the intermediate gradient dilution concentration of the compound to be tested was: 1000 μM, 3-fold dilution, 11 gradients. 100 nL of each concentration of the compound in the 384-well LDV echo plate was transferred to a new 384-well ELISA plate (assay plate) (corning, Cat #4514) by the Echo550 instrument. The final concentration of the compound to be tested was 10 μM, 3-fold dilution, 11 gradients in duplicate after 10 μL of the reaction reagent was added. The final DMSO concentration was 1%. For both negative and positive control wells, 100 nL DMSO would be transferred.
A mixed liquor of 2× working SHP2 reagent (0.4 nM) and 0.5 μM SHP-2 activated peptide (BPS bioscience #79319-2) was prepared with 1× enzyme buffer. After the above-mixed liquor was incubated at 25° C. for 60 minutes, 5 μL of activated SHP2 kinase solution was transferred with a pipettor to the compound wells and the Max control wells (Corning, #4514) of the plate. Then 5 μL of 1× kinase buffer was transferred to the Min control wells. The plate was centrifuged at 1000 rpm for 30 seconds, sealed, and incubated in a 25° C. constant-temperature incubator for 30 minutes. A substrate solution of DiFMUP (#D6567, Invitrogen™) was prepared with 1× kinase buffer, and its concentration should be 2 times as the final concentration of the assay (DiFMUP final concentration: 10 μM). 5 μL of the prepared substrate solution was transferred with an electric pipettor into each well of the ELISA plate to start the reaction. The plate was centrifuged at 1000 rpm for 30 seconds, sealed, and incubated in a 25° C. constant-temperature incubator for 60 minutes. Read the plate at the excitation/emission wavelength of 358/455 nm after the ELISA plate was placed on the Spark machine.
The RLU values were collected from Spark and the inhibition rate was calculated with the RLU values. Inhibition rate=(maximum value-sample RLU)/(maximum value-minimum value)*100. “Minimum value” was referred to the RLU of the enzyme-free control, and “maximum value” was referred to the RLU of the DMSO control. The data were fit by using the XLFit Excel module (version 5.4.0.8) to obtain IC50 values, and the results are shown in Table 1.

[3] = mouse, po, intragastric, 10 mg/kg, plasma

Chain of hERG channel (Q12809 whole entry): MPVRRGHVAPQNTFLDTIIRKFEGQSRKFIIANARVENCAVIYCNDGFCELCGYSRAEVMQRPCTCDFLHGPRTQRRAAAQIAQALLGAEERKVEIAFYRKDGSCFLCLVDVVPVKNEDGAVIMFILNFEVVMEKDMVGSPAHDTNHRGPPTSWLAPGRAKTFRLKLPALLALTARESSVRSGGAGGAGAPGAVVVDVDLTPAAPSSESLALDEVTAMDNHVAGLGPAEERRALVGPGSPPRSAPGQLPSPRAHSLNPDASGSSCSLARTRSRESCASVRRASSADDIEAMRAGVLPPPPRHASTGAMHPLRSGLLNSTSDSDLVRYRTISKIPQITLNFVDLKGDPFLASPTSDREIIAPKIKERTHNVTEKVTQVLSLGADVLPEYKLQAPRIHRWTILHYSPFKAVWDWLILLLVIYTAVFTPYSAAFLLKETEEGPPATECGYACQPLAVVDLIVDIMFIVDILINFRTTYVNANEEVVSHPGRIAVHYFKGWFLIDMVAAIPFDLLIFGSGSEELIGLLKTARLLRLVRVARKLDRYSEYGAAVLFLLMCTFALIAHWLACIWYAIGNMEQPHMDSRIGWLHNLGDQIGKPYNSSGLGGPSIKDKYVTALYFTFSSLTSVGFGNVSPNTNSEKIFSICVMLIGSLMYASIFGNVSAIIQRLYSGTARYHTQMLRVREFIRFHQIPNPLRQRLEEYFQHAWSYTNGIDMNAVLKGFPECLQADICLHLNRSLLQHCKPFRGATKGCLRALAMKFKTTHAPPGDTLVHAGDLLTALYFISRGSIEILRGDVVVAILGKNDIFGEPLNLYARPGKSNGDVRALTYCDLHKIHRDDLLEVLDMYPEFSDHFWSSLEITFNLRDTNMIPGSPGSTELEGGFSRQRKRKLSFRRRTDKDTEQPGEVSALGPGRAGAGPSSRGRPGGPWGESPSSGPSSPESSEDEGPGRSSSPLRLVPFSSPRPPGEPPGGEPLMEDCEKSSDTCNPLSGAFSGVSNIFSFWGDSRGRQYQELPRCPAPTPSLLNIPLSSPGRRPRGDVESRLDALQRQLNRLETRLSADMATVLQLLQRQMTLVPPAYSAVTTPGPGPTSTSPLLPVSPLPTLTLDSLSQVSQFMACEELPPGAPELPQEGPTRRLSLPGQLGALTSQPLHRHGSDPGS
Chain of SHP2 (Q06124 whole entry): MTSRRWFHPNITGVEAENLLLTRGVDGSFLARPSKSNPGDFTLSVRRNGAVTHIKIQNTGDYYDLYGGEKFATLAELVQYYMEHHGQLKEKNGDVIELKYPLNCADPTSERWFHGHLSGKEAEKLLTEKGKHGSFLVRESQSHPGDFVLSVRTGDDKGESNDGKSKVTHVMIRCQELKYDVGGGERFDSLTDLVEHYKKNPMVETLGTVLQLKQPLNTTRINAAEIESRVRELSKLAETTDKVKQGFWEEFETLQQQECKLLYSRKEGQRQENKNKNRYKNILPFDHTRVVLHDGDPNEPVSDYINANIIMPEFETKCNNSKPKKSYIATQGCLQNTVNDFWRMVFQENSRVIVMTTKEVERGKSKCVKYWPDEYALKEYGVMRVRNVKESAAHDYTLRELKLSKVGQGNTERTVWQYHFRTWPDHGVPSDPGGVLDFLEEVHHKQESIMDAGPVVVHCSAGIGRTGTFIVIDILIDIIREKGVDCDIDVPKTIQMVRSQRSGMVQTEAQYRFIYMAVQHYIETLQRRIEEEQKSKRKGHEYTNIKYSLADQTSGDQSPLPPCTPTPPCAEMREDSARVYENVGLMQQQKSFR

Structure (SMILES): [2H][C@@]1(N)c2ccccc2OC12CCN(c1nc(N)c(Sc3ccnc(N)c3Cl)nc1C(C)=O)CC2 [Compound 56, (R)-1-(5-amino-6-((2-amino-3-chloropyridine-4-yl)sulfanyl)-3-(3-amino-3-deuterium-spiro[benzofuran-2,4′-piperidine]-1′-yl)pyrazine-2-yl)ethanone]
- IC50 (hERG channel; CHO-K1 stable cell line, hERG tail current, 5 concentrations): > 10000 nM
- inhibitory effect on the hERG channel (in words) (hERG channel; within the detection concentration range of the assay): no obvious inhibitory effect on the hERG channel
- exposure and absorption in mice (in words) ([1]; intragastric administration): relatively high exposure in mice and both were well absorbed in vivo
- Cmax [1, 3]: 3570 ng/mL
- Tmax [1, 3]: 30 min
- AUC(0-t) ([1]; mouse, po, intragastric, 10 mg/kg, plasma, read-out: AUC0-24 h): 18300 ng·h/mL
- IC50 [2]: ≤ 20 nM
- IC50 (SHP2): ≤ 20 nM
